The test system of test [1] is MCF-7 (luminal type A breast carcinoma). Description: MTT antiproliferative assay, MCF-7. Type of test: cell-based, human. To be noted: MCF-7, MTT, 72 h. On the procedure: (§1) Antiproliferative activity of some compounds was evaluated on cell cultures derived from MDA-MB-231 (triple negative human breast carcinoma). […] This finding allowed us to further investigate the antiproliferative activity of selected compounds on additional tumor cell lines. We studied the influence of the stereochemical orientation of the substituents at C2 and C3 in substituted 3,4-dihydro-2H-pyrrole-2-carbonitriles. The antiproliferative activity of single diastereomers of some nitriles 4 and the amide cis-6m were assessed on multiple human cancer cell lines via the MTT assay. For these experiments, the following human cell lines were used: MCF-7 (luminal type A breast carcinoma), MD-MBA-231, H1299 (non-small-cell lung carcinoma cells), A549 (lung alveolar adenocarcinoma), HeLa (cervical cancer), HepG2 (hepatocellular carcinoma), HT-29 (colorectal adenocarcinoma) and PC3 (prostate adenocarcinoma). As a model of normal tissue, we used MCF-10A (non-tumorigenic epithelial cells of mammary gland). Table 5 and Table 6 present the values of concentration that inhibits cell viability to 50% (IC50) and selectivity index (SI = IC50(MCF-10A)/IC50(tumor cell line)).
(§2) The antiproliferative activity testing was performed on cell cultures from several human cancer cell lines the MTT-dye reduction assay, described by Mosmann. Cell lines were obtained from the American Type Cultures Collection (ATCC, Manassas, VA, USA). In this article we used the following cell lines: MCF-10A (ATCC, CRL-10317™) Non-tumorigenic epithelial cells of mammary gland, MCF-7 (ATCC, HTB-22™) Luminal type A breast carcinoma, MDA-MB-231 (ATCC, HTB-26™) Triple negative breast carcinoma, H1299 (ATCC, CRL-5803™) Non-small-cell lung carcinoma, A549 (ATCC, CRM-CCL-185™) Llung alveolar adenocarcinoma, HeLa (ATCC, CCL-2™) Cervical cancer, Hep G2 (ATCC, HB-8065™) Hepatocellular carcinoma, HT-29 (ATCC, HTB-38™) Colorectal adenocarcinoma, PC-3 (ATCC, CRL-1435™) Prostate adenocarcinoma. The cells were cultured in a cell culture laboratory at the Institute of Experimental Morphology, Pathology and Anthropology with a Museum—Bulgarian Academy of Sciences. They were cultured in Dulbecco’s Modified Eagle’s medium, high glucose (DMEM 4.5 g/L glucose), supplied with 10% fetal bovine serum and antibiotics in usual concentrations in a humidified atmosphere with 5% CO2 at 37.5 °C. In the case of MCF-10A cells, epidermal growth factor, insulin and cholera toxin were added in concentrations corresponding to the cell bank instructions. Cells were plated at a density of 1 × 10^3 cells per well in a 96-well flat-bottomed microplates and allowed to adhere for 24 h before treatment with the test compounds, dissolved in DMSO, and further diluted in culture medium to the final concentrations. A concentration ranges from 5 µM to 4.1 mM was tested over an incubation period of 72 h. Cisplatin (Sigma-Aldrich) was used as a positive control in a concentration range 50 nM to 100 µM. All experiments were performed in triplicates. The MTT-formazan absorption was measured using a microplate reader (TECAN, Sunrise^TM, Groedig/Salzburg, Austria) at 570 nm. Antiproliferative activities were expressed as IC50 values (concentrations required for 50% inhibition of cell growth), calculated using non-linear regression analysis (GraphPad Prizm8 Software). The statistical analysis involved One-way ANOVA followed by Bonferroni’s post hoc test p < 0.05 was accepted as the lowest level of statistical significance.
For orientation: Tetrazolium dyes change colour on reduction, which living cells bring about.

The subject of test [2] is H1299 (non-small-cell lung carcinoma cells). Kind of test: MTT antiproliferative assay, H1299. It is filed as cell-based, human. The method, then:
as §1, §2

Test [3] has as its system HT-29 (colorectal adenocarcinoma). Kind of test: MTT antiproliferative assay, HT-29. Type of test: cell-based, human. To be noted: HT-29, MTT, 72 h. The method, then: as §1, §2
Test [4] relates to PC3 (prostate adenocarcinoma). Description: MTT antiproliferative assay, PC3. Type of test: cell-based, human. To be noted: 72 h. On the procedure:
as §1, §2

Test [5] has as its system HepG2 (hepatocellular carcinoma). Description: MTT antiproliferative assay, HepG2. Type of test: cell-based, human. To be noted: 72 h. On the procedure: as §1, §2
The next test deals with HeLa (cervical cancer). Kind of test: MTT antiproliferative assay, HeLa. It is filed as cell-based, human. To be noted: 72 h. On the procedure: as §1, §2
Test [6] has as its system A549 (lung alveolar adenocarcinoma). Kind of test: MTT antiproliferative assay, A549. Type of test: cell-based, human. To be noted: 72 h. On the procedure:
as §1, §2

For test [7], the system named is MDA-MB-231 (triple negative human breast carcinoma). Description: MTT antiproliferative assay, MDA-MB-231. To be noted: for IC50: MDA-MB-231, MTT, 72 h; for antiproliferative activity (in words): MDA-MB-231, preliminary experiments. It is filed as cell-based. On the procedure: as §1, §2
Test [8] has as its system MCF-10A (non-tumorigenic epithelial cells of mammary gland). Kind of test: MTT antiproliferative assay, MCF-10A. It is filed as cell-based, human. To be noted: 72 h. On the procedure:
as §1, §2

Bounds are passed on as bounds.

A word on the IC50: it is the midpoint of a concentration-inhibition curve. Higher therefore signals weaker potency in that assay. Consider `COc1ccc(C2=N[C@@H](C#N)[C@@H](c3ccccc3)C2)cc1` (racemic) [cis-4e], for which the IC50 was 1770 ± 232 µM in [1] (Homo sapiens, MCF7); 840 ± 43 µM in [2] (Homo sapiens, NCI-H1299, 72 h); 308 ± 8 µM in test [3] (Homo sapiens); 478 ± 58 µM in test [4] (Homo sapiens); 554 ± 34 µM in [5] (Homo sapiens); 158 ± 6.5 µM in the test with HeLa (cervical cancer) (Homo sapiens). Further, the concentration for half-maximal inhibition (IC50) was 341 ± 26 µM in test [6] (Homo sapiens), > 3620 µM in test [7] (Homo sapiens) and 427 ± 12 µM in [8] (Homo sapiens).

Regarding `N#C[C@@H]1N=C(c2ccccc2)C[C@@H]1c1cccnc1` (racemic) [cis-4h], the half-maximal inhibitory concentration (IC50) was determined as 1380 ± 255 µM in [1] (Homo sapiens, MCF7); 2980 ± 62 µM in [2] (Homo sapiens, NCI-H1299, 72 h); 1640 ± 132 µM in [3] (Homo sapiens); 1920 ± 70 µM in [4] (Homo sapiens); 3000 ± 107 µM in test [5] (Homo sapiens); 2220 ± 136 µM with HeLa (cervical cancer) (Homo sapiens). Moreover, the IC50 is 311 ± 19 µM in [6] (Homo sapiens), > 4110 µM in test [7] (Homo sapiens) and 2280 ± 178 µM in test [8] (Homo sapiens).

Consider `Cc1ccc(C2=N[C@@H](C#N)[C@@H](c3ccccc3)C2)cc1` (racemic) [cis-4k], for which the IC50 in test [1] (Homo sapiens, MCF7) turned out to be 374 ± 6 µM; in test [2] (Homo sapiens, NCI-H1299, 72 h) it was 205 ± 6 µM; in test [3] (Homo sapiens), 853 ± 46 µM; in test [4] (Homo sapiens), 297 ± 25 µM; in [5] (Homo sapiens), 235 ± 15 µM; with HeLa (cervical cancer) (Homo sapiens) it was 169 ± 10 µM. The half-inhibitory concentration (IC50) in [6] (Homo sapiens) worked out at 82.2 ± 5.8 µM; in test [7] (Homo sapiens) it was 2560 ± 107 µM; in test [8] (Homo sapiens), 104 ± 6 µM.

For the compound `COc1cc(O)c(C2=N[C@@H](C#N)[C@@H](c3ccc(C)c(Cl)c3)C2)c(OC)c1` (racemic) [cis-4n], the IC50 in test [7] (Homo sapiens) is 75.8 µM.

`COc1cc(O)c(C2=N[C@@H](C#N)[C@@H](c3ccc(C)c(Br)c3)C2)c(OC)c1` (racemic) [cis-4o] yielded a 50% inhibitory concentration (IC50) in test [7] (Homo sapiens) of 35.9 µM.

On to `COc1cc(O)c(C2=N[C@@H](C#N)[C@H](c3ccc(C)c(F)c3)C2)c(OC)c1` (racemic) [trans-4m], for which the IC50 came out at 149 ± 12 µM in test [1] (Homo sapiens, MCF7); 36.4 ± 2 µM in [2] (Homo sapiens, NCI-H1299, 72 h); 28.1 ± 2 µM in test [3] (Homo sapiens); 44.3 ± 5.4 µM in test [4] (Homo sapiens); 44.6 ± 2.8 µM in test [5] (Homo sapiens); 1170 ± 42 µM in the test with HeLa (cervical cancer) (Homo sapiens). Also, the 50% inhibitory concentration (IC50) in test [6] (Homo sapiens) turned out to be 32.2 ± 1.1 µM; in test [7] (Homo sapiens), 717 ± 73 µM; in test [8] (Homo sapiens), 79.3 ± 2.5 µM.

Regarding `COc1cc(O)c(C2=N[C@@H](C#N)[C@H](c3ccc(C)c(Cl)c3)C2)c(OC)c1` (racemic) [trans-4n], in test [7], the “antiproliferative activity (in words)” value is given as “very poor activity”.

For the compound `COc1cc(O)c(C2=N[C@@H](C#N)[C@H](c3ccc(C)c(Br)c3)C2)c(OC)c1` (racemic) [trans-4o], the “antiproliferative activity (in words)” value in test [7] is listed as “very poor activity”.

For the compound `COc1cc(O)c(C2=N[C@@H](C#N)[C@H](c3ccc(C)c(F)c3)C2)c(OC)c1` (relative stereo) [cis-4m, rel-(2R,3S)-3-(3-fluoro-4-methylphenyl)-5-(2-hydroxy-4,6-dimethoxyphenyl)-3,4-dihydro-2H-pyrrole-2-carbonitrile], the IC50 in test [1] turned out to be 185 ± 26 µM; in test [2] (72 h), 25.4 ± 2.3 µM; in test [3], 19.6 ± 1.8 µM; in test [4] it was 115 ± 4.8 µM; in [5] it was 117 ± 4.8 µM; in the test on HeLa (cervical cancer) it was 224 ± 15 µM. Besides, the concentration for half-maximal inhibition (IC50) worked out at 97.6 ± 13 µM in test [6], 16 ± 0.7 µM in [7] and 170 ± 12 µM in [8].

As to `Cc1ccc(C2=N[C@@H](C#N)[C@H](c3ccccc3)C2)cc1` (relative stereo) [trans-4k, rel-(2R,3S)-5-(4-methylphenyl)-3-phenyl-3,4-dihydro-2H-pyrrole-2-carbonitrile], the half-inhibitory concentration (IC50) amounted to 568 ± 57 µM in test [1] (Homo sapiens, MCF7); 354 ± 15 µM in test [2] (Homo sapiens, NCI-H1299, 72 h); 136 ± 7.7 µM in test [3] (Homo sapiens); 121 ± 13 µM in [4] (Homo sapiens); 159 ± 4.6 µM in test [5] (Homo sapiens); 84.1 ± 2.3 µM in the test on HeLa (cervical cancer) (Homo sapiens). In addition, the half-maximal inhibitory concentration (IC50) amounted to 11.7 ± 0.8 µM in test [6] (Homo sapiens), 313 ± 20 µM in test [7] (Homo sapiens) and 182 ± 5.8 µM in [8] (Homo sapiens).

As to `N.N.[Cl][Pt][Cl]` [Cisplatin, reference compound], the IC50 in test [1] turned out to be 45.8 ± 3.2 µM; in test [2] (72 h) it was 5 ± 0.9 µM; in [3], 8.2 ± 0.3 µM; in test [4] it was 3.4 ± 0.5 µM; in test [5], 19.1 ± 0.4 µM; in the test with HeLa (cervical cancer) it was 19.6 ± 3.2 µM. Further, the IC50 worked out at 38.6 ± 4.7 µM in test [6], 1.8 ± 0.1 µM in test [7] and 23.2 ± 1.4 µM in test [8].

Consider `COc1cc(O)c(C2=N[C@@H](C(N)=O)[C@@H](c3ccc(C)c(F)c3)C2)c(OC)c1` [cis-6m], for which the IC50 was determined as 923 ± 37 µM in test [1] (Homo sapiens, MCF7); 1880 ± 51 µM in test [2] (Homo sapiens, NCI-H1299, 72 h); 64.3 ± 4.8 µM in test [3] (Homo sapiens); 125 ± 7.6 µM in test [4] (Homo sapiens); 117 ± 6.2 µM in test [5] (Homo sapiens); 1180 ± 37 µM in the test on HeLa (cervical cancer) (Homo sapiens). Besides, the IC50 was found to be 136 ± 5.4 µM in [6] (Homo sapiens), 1990 ± 40 µM in test [7] (Homo sapiens) and 429 ± 28 µM in test [8] (Homo sapiens).

These data come from publication PMC11990662, “Synthesis and Evaluation of the Antiproliferative Activity of the Derivatives of 3,5-Diaryl-3,4-dihydro-2H-pyrrole-2-carboxylic Acids” (Molecules, 2025).
